What was measured:
Assay in all cases: relative viability (nuclei count vs DMSO), 5 days (fraction); higher = more cells survive
Selumetinib + Foretinib = compound: Cn1cnc2c(F)c(Nc3ccc(Br)cc3Cl)c(C(=O)NOCCO)cc21 [Selumetinib] + COc1cc2c(Oc3ccc(NC(=O)C4(C(=O)Nc5ccc(F)cc5)CC4)cc3F)ccnc2cc1OCCCN1CCOCC1 [Foretinib] (partner 0.25 µM)
Summary of the method: (§1)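 A single step with final 0.05% Triton X-100, 1% formaldehyde and 1 ug/ml Hoechst fixed the cells and stained nuclei 5 days after treatment. Lung cancer cell lines in 1536-well plates had been treated by pin tool the day after seeding with one drug alone or a fixed anchor-drug dose plus five library-drug doses (not always all listed) in √10 steps, and nuclei were counted on 4× images. Relative viability is the ratio of nuclei in treated wells to nuclei in vehicle wells, taken as the median of duplicate plates.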

Venetoclax + AZD7762 = compound: CC1(C)CCC(CN2CCN(c3ccc(C(=O)NS(=O)(=O)c4ccc(NCC5CCOCC5)c([N+](=O)[O-])c4)c(Oc4cnc5[nH]ccc5c4)c3)CC2)=C(c2ccc(Cl)cc2)C1 [Venetoclax] + NC(=O)Nc1cc(-c2cccc(F)c2)sc1C(=O)N[C@H]1CCCNC1 [AZD7762] (partner 0.2 µM)
Summary of the method: as §1

Venetoclax + Olaparib = compound: CC1(C)CCC(CN2CCN(c3ccc(C(=O)NS(=O)(=O)c4ccc(NCC5CCOCC5)c([N+](=O)[O-])c4)c(Oc4cnc5[nH]ccc5c4)c3)CC2)=C(c2ccc(Cl)cc2)C1 [Venetoclax] + O=C(c1cc(Cc2n[nH]c(=O)c3ccccc23)ccc1F)N1CCN(C(=O)C2CC2)CC1 [Olaparib] (partner 8 µM)
Summary of the method: as §1

Selumetinib + Crizotinib = compound: Cn1cnc2c(F)c(Nc3ccc(Br)cc3Cl)c(C(=O)NOCCO)cc21 [Selumetinib] + C[C@@H](Oc1cc(-c2cnn(C3CCNCC3)c2)cnc1N)c1c(Cl)ccc(F)c1Cl [Crizotinib] (partner 1 µM)
Summary of the method: as §1

Cell Line | relative viability (Selumetinib + Foretinib; first compound 0.02 µM) | relative viability (Selumetinib + Foretinib; first compound 0.06325 µM) | relative viability (Selumetinib + Foretinib; first compound 0.2 µM) | relative viability (Selumetinib + Foretinib; first compound 0.6325 µM) | relative viability (Venetoclax + AZD7762; first compound 0.03162 µM) | relative viability (Venetoclax + AZD7762; first compound 0.1 µM) | relative viability (Venetoclax + AZD7762; first compound 0.3162 µM) | relative viability (Venetoclax + AZD7762; first compound 1 µM) | relative viability (Venetoclax + Olaparib; first compound 0.03162 µM) | relative viability (Venetoclax + Olaparib; first compound 0.1 µM) | relative viability (Venetoclax + Olaparib; first compound 0.3162 µM) | relative viability (Venetoclax + Olaparib; first compound 1 µM) | relative viability (Venetoclax + Olaparib; first compound 0.01 µM) | relative viability (Selumetinib + Crizotinib; first compound 0.02 µM) | relative viability (Selumetinib + Crizotinib; first compound 0.06325 µM) | relative viability (Selumetinib + Crizotinib; first compound 0.2 µM) | relative viability (Selumetinib + Crizotinib; first compound 0.6325 µM) | relative viability (Venetoclax + AZD7762; first compound 0.01 µM)
NCI-H1623 | 0.729 | 0.679 | 0.614 | 0.632 |  |  |  |  |  |  |  |  |  |  |  |  |  | 
NCI-H1648 |  |  |  |  | 0.69 | 0.649 | 0.758 | 0.527 | 0.766 | 0.698 | 0.841 | 0.713 |  |  |  |  |  | 
NCI-H1650 | 0.992 | 0.888 | 0.842 | 0.928 |  |  |  |  | 0.733 | 0.994 | 0.592 | 0.745 | 0.763 | 0.97 | 0.863 | 0.888 | 0.786 | 
NCI-H1792 |  |  |  |  | 0.698 | 0.703 | 0.608 | 0.565 | 0.463 | 0.384 | 0.561 | 0.339 | 0.286 | 0.986 | 0.86 | 0.816 | 0.682 | 0.58
NCI-H1793 | 0.69 | 0.511 | 0.386 | 0.415 | 0.441 | 0.346 | 0.299 | 0.259 | 0.892 | 0.883 | 0.806 | 0.712 | 0.867 |  |  |  |  | 0.638
NCI-H2009 | 0.965 | 0.87 | 0.511 | 0.337 |  |  |  |  | 0.729 | 0.681 | 0.655 | 0.586 | 0.662 | 0.765 | 0.623 | 0.53 | 0.336 | 
NCI-H2023 | 0.709 | 0.811 | 0.6 | 0.572 |  |  |  |  | 0.498 | 0.453 | 0.561 | 0.455 | 0.425 | 0.649 | 0.533 | 0.431 | 0.503 | 
NCI-H2228 | 0.81 | 0.802 | 0.807 | 0.623 |  |  |  |  | 0.832 | 0.519 | 0.776 | 0.692 | 0.519 | 0.527 | 0.595 | 0.351 | 0.413 | 
NCI-H2342 | 0.922 | 1.09 | 0.961 | 0.981 | 0.75 | 0.491 | 0.388 | 0.53 | 0.554 | 0.543 | 0.401 | 0.475 | 0.462 |  |  |  |  | 0.734
SK-LU-1 | 0.762 | 0.778 | 0.711 | 0.449 |  |  |  |  | 0.665 | 0.477 | 0.574 | 0.623 | 0.447 | 0.922 | 0.881 | 0.828 | 0.46 | 
SK-MES-1 | 0.831 | 0.818 | 0.534 | 0.491 |  |  |  |  | 0.918 | 0.66 | 0.737 | 0.664 | 0.732 | 1 | 0.905 | 0.974 | 0.741 | 
SW 900 | 0.876 | 0.78 | 0.783 | 0.92 | 0.696 | 0.59 | 0.715 | 0.668 | 0.866 | 0.841 | 0.845 | 0.819 | 0.76 |  |  |  |  | 0.538
SW 1573 | 0.909 | 0.776 | 0.638 | 0.598 |  |  |  |  | 0.516 | 0.479 | 0.473 | 0.399 | 0.581 | 0.762 | 0.683 | 0.639 | 0.597 | 

From the supplement of paper PMC10307832
